Assay results taken from patent US11725011B2, “Bicyclic urea kinase inhibitors and uses thereof” (The Broad Institute, Inc., priority 2016, dated 2023).

How the values were obtained:
[1] = target: full length His6-MBP-tagged hSIK2 (Homo sapiens (Human), UniProt Q9H0K1); test: SIK2 kinase activity assay (Caliper-based mobility shift); format: biochemical; settings: 4 nM hSIK2, 30 μM ATP, 1 hr, rt
Description: Reactions were quenched by adding 20 mM EDTA (pH 8) after 1 hr, and percentage of substrate conversion was measured by LabChip EZ Reader II (PerkinElmer).

SIK3 = SIK3 (Homo sapiens (Human), UniProt Q9Y2K2); test: Percent activity against SIK3 at 1 μM; format: biochemical; settings: for SIK3 % ACTIVITY: compound at 1 μM, approximate Km for ATP
Sequence of SIK3 (Q9Y2K2 whole entry): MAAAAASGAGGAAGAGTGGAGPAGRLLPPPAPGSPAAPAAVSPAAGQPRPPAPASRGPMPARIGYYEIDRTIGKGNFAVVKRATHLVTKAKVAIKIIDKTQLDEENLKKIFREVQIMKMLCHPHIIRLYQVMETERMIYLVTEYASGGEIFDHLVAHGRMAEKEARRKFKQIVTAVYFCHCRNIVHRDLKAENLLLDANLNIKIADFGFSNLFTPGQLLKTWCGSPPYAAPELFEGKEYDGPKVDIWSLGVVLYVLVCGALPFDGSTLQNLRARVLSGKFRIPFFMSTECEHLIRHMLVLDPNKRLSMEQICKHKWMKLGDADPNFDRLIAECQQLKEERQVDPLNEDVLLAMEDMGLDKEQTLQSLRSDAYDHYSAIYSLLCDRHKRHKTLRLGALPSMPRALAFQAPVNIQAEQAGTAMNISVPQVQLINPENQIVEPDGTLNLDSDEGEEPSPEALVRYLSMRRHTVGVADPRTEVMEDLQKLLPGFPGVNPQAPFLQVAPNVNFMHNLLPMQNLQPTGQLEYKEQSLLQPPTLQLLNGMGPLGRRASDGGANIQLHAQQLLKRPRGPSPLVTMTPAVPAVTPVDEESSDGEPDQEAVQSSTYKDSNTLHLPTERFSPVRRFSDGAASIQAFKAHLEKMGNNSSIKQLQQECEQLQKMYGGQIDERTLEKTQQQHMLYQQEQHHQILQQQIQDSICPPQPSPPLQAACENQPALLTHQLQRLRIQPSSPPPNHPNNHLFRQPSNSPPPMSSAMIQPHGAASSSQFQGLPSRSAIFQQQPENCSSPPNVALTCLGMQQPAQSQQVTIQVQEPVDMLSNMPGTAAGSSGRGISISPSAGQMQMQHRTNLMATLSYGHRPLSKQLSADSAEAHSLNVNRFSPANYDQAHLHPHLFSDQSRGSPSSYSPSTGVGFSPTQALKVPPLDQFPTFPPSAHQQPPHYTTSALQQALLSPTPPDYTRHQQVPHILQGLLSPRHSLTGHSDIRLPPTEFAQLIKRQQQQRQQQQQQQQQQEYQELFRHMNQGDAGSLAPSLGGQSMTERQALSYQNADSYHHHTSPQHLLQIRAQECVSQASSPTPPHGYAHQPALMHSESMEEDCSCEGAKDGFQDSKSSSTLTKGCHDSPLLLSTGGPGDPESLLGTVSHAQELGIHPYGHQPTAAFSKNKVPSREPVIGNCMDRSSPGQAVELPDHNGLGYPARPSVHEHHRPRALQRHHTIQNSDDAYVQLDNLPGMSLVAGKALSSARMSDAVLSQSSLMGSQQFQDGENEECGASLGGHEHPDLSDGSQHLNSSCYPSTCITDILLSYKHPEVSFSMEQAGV

SIK2 = SIK2 (Homo sapiens (Human), UniProt Q9H0K1); test: Percent activity against SIK2 at 1 μM; format: biochemical; settings: for SIK2 % ACTIVITY: compound at 1 μM, approximate Km for ATP
Sequence of SIK2 (Q9H0K1 whole entry): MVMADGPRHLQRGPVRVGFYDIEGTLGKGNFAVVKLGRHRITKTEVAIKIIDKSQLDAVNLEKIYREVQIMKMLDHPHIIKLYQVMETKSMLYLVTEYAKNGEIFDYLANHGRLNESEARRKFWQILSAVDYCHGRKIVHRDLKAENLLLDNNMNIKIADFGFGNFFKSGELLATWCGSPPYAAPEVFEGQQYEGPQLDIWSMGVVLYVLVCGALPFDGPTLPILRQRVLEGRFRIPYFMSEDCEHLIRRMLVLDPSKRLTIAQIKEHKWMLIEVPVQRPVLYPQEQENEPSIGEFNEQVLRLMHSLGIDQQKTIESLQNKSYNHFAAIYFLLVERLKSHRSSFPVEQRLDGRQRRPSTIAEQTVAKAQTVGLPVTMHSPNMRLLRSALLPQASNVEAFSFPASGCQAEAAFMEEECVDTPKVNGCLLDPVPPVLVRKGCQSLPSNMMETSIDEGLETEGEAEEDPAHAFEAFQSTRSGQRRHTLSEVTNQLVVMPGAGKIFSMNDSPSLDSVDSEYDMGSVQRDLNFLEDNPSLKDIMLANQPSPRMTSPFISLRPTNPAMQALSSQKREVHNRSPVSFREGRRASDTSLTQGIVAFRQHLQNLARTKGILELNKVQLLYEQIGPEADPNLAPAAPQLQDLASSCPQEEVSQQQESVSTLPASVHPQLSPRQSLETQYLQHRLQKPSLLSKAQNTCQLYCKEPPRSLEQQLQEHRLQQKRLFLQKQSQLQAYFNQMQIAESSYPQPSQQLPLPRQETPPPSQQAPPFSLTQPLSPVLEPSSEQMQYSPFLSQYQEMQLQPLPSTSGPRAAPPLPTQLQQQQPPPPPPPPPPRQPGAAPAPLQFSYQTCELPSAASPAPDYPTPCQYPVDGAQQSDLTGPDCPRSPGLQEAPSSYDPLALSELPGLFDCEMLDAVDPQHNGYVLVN

SIK1 = SIK1 (Homo sapiens (Human), UniProt P57059); test: Percent activity against SIK1 at 1 μM; format: biochemical; settings: for SIK1 % ACTIVITY: compound at 1 μM, approximate Km for ATP
Sequence of SIK1 (P57059 whole entry): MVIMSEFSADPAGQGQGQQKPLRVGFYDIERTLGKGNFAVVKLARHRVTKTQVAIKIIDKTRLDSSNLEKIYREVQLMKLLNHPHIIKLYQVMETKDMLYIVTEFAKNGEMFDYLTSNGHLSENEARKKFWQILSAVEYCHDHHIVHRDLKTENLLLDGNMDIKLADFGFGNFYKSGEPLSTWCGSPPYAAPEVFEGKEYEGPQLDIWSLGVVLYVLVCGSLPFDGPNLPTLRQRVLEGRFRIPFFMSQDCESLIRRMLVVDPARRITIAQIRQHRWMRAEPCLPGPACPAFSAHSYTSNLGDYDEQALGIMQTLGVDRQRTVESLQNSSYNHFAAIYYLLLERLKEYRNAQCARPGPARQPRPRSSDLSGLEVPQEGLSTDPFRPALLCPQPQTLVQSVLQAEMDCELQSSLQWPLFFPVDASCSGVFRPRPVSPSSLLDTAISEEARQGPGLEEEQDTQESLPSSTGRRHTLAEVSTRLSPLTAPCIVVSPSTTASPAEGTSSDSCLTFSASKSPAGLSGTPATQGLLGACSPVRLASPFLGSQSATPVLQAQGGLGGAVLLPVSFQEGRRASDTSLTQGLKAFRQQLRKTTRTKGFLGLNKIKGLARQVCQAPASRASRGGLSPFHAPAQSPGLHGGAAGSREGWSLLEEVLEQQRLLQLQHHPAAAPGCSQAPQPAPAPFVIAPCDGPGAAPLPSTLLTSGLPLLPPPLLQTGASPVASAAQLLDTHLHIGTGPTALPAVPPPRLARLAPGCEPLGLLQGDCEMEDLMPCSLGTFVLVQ

[2] = qAC50 biological assay (Table 4); settings: for Data Mode: curve direction of qAC50 data
Viability loss (Table 4) = format: cell-based

Sequence of full length His6-MBP-tagged hSIK2 (Q9H0K1 whole entry): as the sequence (Q9H0K1 whole entry) above

Compound	IC50 [1]	Enzyme activity at 1 μM (%) SIK3 (SIK3)	SIK3 % ACTIVITY (SIK3)	Enzyme activity at 1 μM (%) SIK2 (SIK2)	SIK2 % ACTIVITY (SIK2)	Enzyme activity at 1 μM (%) SIK1 (SIK1)	SIK1 % ACTIVITY (SIK1)	qAC50 [2]	Data Mode [2]	Viability loss AC40 (Viability loss (Table 4))	Viability loss data mode (Viability loss (Table 4))
COc1ccc(N2C(=O)N(c3c(C)cccc3Cl)Cc3cnc(Nc4ccc(N5CCN(C)CC5)cc4OC)nc32)nc1 [YKL-05-96]	34 ± 14 nM										
COc1ccc(N2C(=O)N(c3c(C)cccc3C)Cc3cnc(Nc4ccc(N5CCN(C)CC5)cc4OC)nc32)c(OC)c1 [HG-11-139-01]		7.5%	7.5%	2.1%	2.1%	15.3%	15.3%	<50 nM	increasing	8910 nM	decreasing
COc1ccc(N2C(=O)N(c3c(C)cccc3Cl)Cc3cnc(Nc4ccc(N5CCN(C)CC5)cc4)nc32)nc1 [YKL-05-95]	6 ± 3 nM										
Cc1ccc(NC(=O)c2cccc(C(F)(F)F)c2)cc1N1Cc2cnc(Nc3ccc(N4CCN(C)CC4)cc3)nc2N(C)C1=O [HG-11-23-01]				7%	7.0%	12.5%	12.5%	<50 nM	decreasing	106 nM	decreasing
CN1CCN(c2ccc(Nc3ncc4c(n3)N(C)C(=O)N(c3ccccc3)C4)cc2)CC1 [HG-11-137-01]		8.6%	8.6%	1.4%	1.4%	12.9%	12.9%	466 nM	increasing	6960 nM	decreasing

The next lines start with results.

IC50 [1]	Enzyme activity at 1 μM (%) SIK3 (SIK3)	SIK3 % ACTIVITY (SIK3)	Enzyme activity at 1 μM (%) SIK2 (SIK2)	SIK2 % ACTIVITY (SIK2)	Enzyme activity at 1 μM (%) SIK1 (SIK1)	SIK1 % ACTIVITY (SIK1)	Compound	qAC50 [2]	Data Mode [2]	Viability loss AC40 (Viability loss (Table 4))	Viability loss data mode (Viability loss (Table 4))
	9.3%	9.3%	4.3%	4.3%	7.9%	7.9%	COc1ccc(N2C(=O)N(c3c(C)cccc3C)Cc3cnc(Nc4cc(N5CCOCC5)cc(N5CCN(C)CC5)c4)nc32)c(OC)c1 [HG-11-143-01]	469 nM	decreasing		
				27.4%		12.0%	Cc1ccc(Nc2ncc3c(n2)N(C)C(=O)N(c2cc(NC(=O)c4cccc(C(F)(F)F)c4)ccc2C)C3)cn1 [GNF-7]				
				32.8%		36.0%	COc1cc(N2CCN(C)CC2)ccc1Nc1ncc2c(n1)N(C)C(=O)N(c1ccccc1)C2 [HG-11-139-02]	>26000 nM	increasing	> 10000 nM	inactive
